From PMC12040275, “Fusaric acid-mediated S-glutathionylation of MaAKT1 channel confers the virulence of Foc TR4 to banana” (PLOS Pathogens, 2025)

What was measured:
MaAKT1 [1] = molecular target: T1, MaAKT1 (Musa acuminata, UniProt A0A804HWY8); test: whole-cell patch clamp, HEK-293; assay type: cell-based; details: HEK293
T1 construct: synthesized cDNA in pcDNA 6/His A, expressed in HEK-293 cells; patch-clamp

MaAKT1 [2] = molecular target: T1, MaAKT1; test: patch clamp, giant inside-out patches from HEK-293; assay type: biochemical; details: covalent (cysteine thiol oxidation); applied to cytosolic side; -194 mV

T1 sequence (A0A804HWY8 1-891): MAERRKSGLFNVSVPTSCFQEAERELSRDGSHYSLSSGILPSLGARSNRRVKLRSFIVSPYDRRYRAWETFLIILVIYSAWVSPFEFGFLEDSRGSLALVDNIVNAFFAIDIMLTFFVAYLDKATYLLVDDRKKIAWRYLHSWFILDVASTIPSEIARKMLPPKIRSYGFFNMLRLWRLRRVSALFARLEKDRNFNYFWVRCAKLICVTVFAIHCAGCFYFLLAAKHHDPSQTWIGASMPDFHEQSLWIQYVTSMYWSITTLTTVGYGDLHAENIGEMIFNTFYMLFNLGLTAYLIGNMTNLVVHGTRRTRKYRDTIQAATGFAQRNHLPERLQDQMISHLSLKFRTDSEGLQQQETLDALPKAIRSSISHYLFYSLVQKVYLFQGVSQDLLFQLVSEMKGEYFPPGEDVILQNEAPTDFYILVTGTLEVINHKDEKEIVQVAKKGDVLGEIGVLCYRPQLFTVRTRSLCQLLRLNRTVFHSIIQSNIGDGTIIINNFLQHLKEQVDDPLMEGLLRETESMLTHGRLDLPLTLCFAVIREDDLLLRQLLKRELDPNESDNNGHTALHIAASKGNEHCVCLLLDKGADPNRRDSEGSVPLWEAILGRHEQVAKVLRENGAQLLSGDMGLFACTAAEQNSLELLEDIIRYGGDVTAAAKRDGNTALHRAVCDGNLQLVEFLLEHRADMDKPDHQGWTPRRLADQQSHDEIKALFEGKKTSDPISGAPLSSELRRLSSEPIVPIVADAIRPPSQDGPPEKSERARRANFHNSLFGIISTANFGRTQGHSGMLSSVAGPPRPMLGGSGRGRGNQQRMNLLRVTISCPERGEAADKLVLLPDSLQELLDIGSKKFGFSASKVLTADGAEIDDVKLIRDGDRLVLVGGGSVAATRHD

Compound | inhibition at 50 µM (MaAKT1 [1]) [%] | patch clamp, giant inside-out patches from HEK-293 (MaAKT1 [2])
c1ccc(SSc2ccccn2)nc1 [2-DTP, 2,2-Dithiodipyridine] | 61.5 ± 6.66 | –
O=C(O)c1cc(SSc2ccc([N+](=O)[O-])c(C(=O)O)c2)ccc1[N+](=O)[O-] [DTNB, 5,5-dithiobis-2-nitrobenzoic acid] | – | low concentration of DTNB significantly inhibited MaAKT1
O=[N+]([O-])c1ccc(SSc2ccc([N+](=O)[O-])cn2)nc1 [DTNP, 2,2’-dithiobis-5-nitropyridine] | 60 ± 9.89 | –
